Experimental data taken from patent US9788549B2, “Broad spectrum disinfectant” (DI[…] LLC, priority 2014, dated 2017).

Tests used:
[1] = solution has the proper amount of sodium polyphosphate
[2] = atmospheric pressure, 20° C.; cited from earlier work

[O][Cl+][O-] [Chlorine dioxide]
stability of ClO2 in solution [1]: remain stable for years
solubility in water [2]: approximately 70 g/l
